Columns and labels:
[1] = system: B. longum bv. longum DJO10A; assay: FTICR-MS HMO consumption glycoprofiling of bacterial fermentation; assay type: cell-based, Bifidobacterium longum bv. longum; conditions: 45 hrs
Text: (§1) Bifidobacterium longum bv. infantis ATCC 15697 and B. breve ATCC 15700 were obtained from the American Type Culture Collection (Manassas, Va.), B. longum bv. longum DJO10A was from D. O'Sullivan, University of Minnesota. Cultures were initially propagated in deMan, Rogosa, Sharpe broth (Becton Dickinson, Sparks, Md.) then grown twice on a semi-synthetic MRS medium, devoid of a carbohydrate source (Barrangou et al., Proceedings of the National Academy of Sciences of the United States of America (2003) 100, (15), 8957-8962). This medium was supplemented with 2.0% (w/v) sterile filtered (Millex-GV, 0.22 μm, Millipore, Billerica, Mass.) HMO as the only carbohydrate source. […] Cell growth was measured by assessing optical density at 600 nm with a ND-1000 Spectrophotometer (NanoDrop Technologies, Wilmington, Del.). […]
(§2) All mass spectra were acquired on a HiResESI QFT-hybrid Fourier transform ion cyclotron resonance mass spectrometer with a 9.4 Tesla shielded superconducting magnet (IonSpec Corp., Irvine, Calif.). […] Ion excitation was performed by arbitrary waveform with amplitude of 125.0 V (base-to-peak) and detected by direct broadband mode at a rate of 1 MHz and 512K data points. Each spectrum was recorded with one acquisition scan in the positive ion mode.
(§3) The D/H ratios were calculated using Formula 1 adapted from Xie et al. (Xie et al., Analytical Chemistry (2004) 76, (17), 5186-5197). […]

[2] = system: B. breve ATCC 15700; assay: as above; assay type: cell-based, Bifidobacterium breve; conditions: 45 hrs
Text: as §1, §2, §3

[3] = system: sialidase (EC 3.2.1.18) of B. breve ATCC 15700; assay: Glycosyl hydrolase assay, sialidase in cell-free extract; assay type: cell-based; conditions: cells grown with 1% (w/v) of the substance as sole carbon source
Procedure: (§4) Assayed cells were incubated anaerobically at 37° C. on semi-synthetic MRS medium (Barrangou et al., Proceedings of the National Academy of Sciences of the United States of America (2003) 100: 8957-8962), with 1% (w/v) sterile filtered lactose or HMO as the sole carbon source. Early stationary phase cells were harvested and 200 mg of 0.1 mm diameter glass beads (BioSpec Products, Bartlesville, Okla.) were added to the suspensions which were subjected to two cycles of 45 s at power 6.0 m s^−1 on a FastPrep FP120 cell disruptor (Qbiogene, Morgan Irvine, Calif.). The beads and cell debris were removed by centrifugation. Cell-free extracts were collected and kept temporarily on ice until the start of the enzyme assays. Protein concentrations were determined according to the Bradford method using bovine serum albumin as the standard (Bradford, M. M., Analytical Biochemistry (1976) 72, (1-2), 248-254). Activity of α-L-fucosidase (EC 3.2.1.51) and sialidase (EC 3.2.1.18) were assayed with the fluorogenic substrates, 4-methylumbelliferyl α-L-fucopyranoside and 2′-(4-methylumbelliferyl) α-D-N-acetylneuraminic acid respectively. Fucosidase activity was assayed with a fluorogenic substrate concentration of 1 mM in 0.2 M phosphate-citrate buffer (pH 5.2), while the sialidase assay employed 0.5 mM of substrate mixed in equal volume with 50 μl 0.25 M sodium acetate-acetic acid buffer (pH 4.3). The reaction mixture containing 100 μl of cell-free extract and 100 μL substrate solution were incubated for 1 hr at 37° C. with the reaction stopped with 1.3 mL of 0.17 M glycine-carbonate buffer, pH 9.8. The fluorescence of enzymatically liberated 4-methylumbelliferone was determined in a Bio-Rad VersaFluor fluorometer (Eureka, Calif.) by excitation at 360 nm and emission measured at 460 nm. Serially diluted 4-methylumbelliferone was used to calibrate relative fluorescence units with substrate concentration. The specific activity of the glycosyl hydrolase was expressed as nanomoles of hydrolyzed substrate per milligram of protein per hour. Assays were performed in duplicates and the standard error was reported.

[4] = system: sialidase (EC 3.2.1.18) of B. infantis ATCC 15697; assay: as above; assay type: cell-based
Procedure: as §4

[5] = system: sialidase (EC 3.2.1.18) of B. longum DJO10A; assay: as above; assay type: cell-based; conditions: cells grown with 1% (w/v) of the substance as sole carbon source
Procedure: as §4

[6] = media supplemented with 2.0% (w/v) HMO

Compound | consumption of the overall detectable HMO pool represented by LNT metabolism ([1]; 2.0% (w/v) HMO) [%] | consumption of the HMO species [1, 6] [%] | consumption of the overall detectable HMO pool represented by LNT metabolism ([2]; 2.0% (w/v) HMO) [%] | consumption of the HMO species [2, 6] [%] | Sialidase [3] [nmol/min/mg protein] | Sialidase ([4]; cells grown with 1% (w/v) of the substance as sole carbon source) [nmol/min/mg protein] | higher sialidase activity of B. longum bv. infantis compared to B. breve ([4]; grown on lactose) [fold] | higher sialidase activity of B. longum bv. infantis compared to B. longum ([4]; grown on lactose) [fold] | Sialidase [5] [nmol/min/mg protein]
CC(=O)N[C@H]1[C@H](O[C@H]2[C@@H](O)[C@@H](CO)O[C@@H](O[C@H]3[C@H](O)[C@@H](O)C(O)O[C@@H]3CO)[C@@H]2O)O[C@H](CO)[C@@H](O)[C@@H]1O[C@@H]1O[C@H](CO)[C@H](O)[C@H](O)[C@H]1O (stereo partly drawn) [lacto-N-tetraose] | 7.3 | 35.2 | 5.1 | 24.4 | – | – | – | – | –
OC[C@H]1O[C@@H](O[C@H]2[C@H](O)[C@@H](O)C(O)O[C@@H]2CO)[C@H](O)[C@@H](O)[C@H]1O (stereo partly drawn) [lactose] | – | – | – | – | 0.32 ± 0.03 | 10.8 ± 1.0 | 33.7 | 16.6 | 0.65 ± 0.03

Reference: patent US8197872B2, “Human milk oligosaccharides to promote growth of beneficial gut bacteria” (The Regents of the University of California, priority 2007, dated 2012)
